# Measurements: patent US20250059198A1, “BRM DEGRADING COMPOUNDS AND ASSOCIATED METHODS OF USE” (Arvinas Operations, Inc., priority 2021, published 2025)
# Target: T1, BRM (Homo sapiens, UniProt P51531)
# T1 construct: Western Blot Screen of BRM Degradation in SW1573 Cells; endogenous in cells; host or cells: SW1573 cells
# Assay: BRM degradation (Dmax and DC50) in SW1573 cells, Western blot screen / In-Cell Western screen
# Format: cell-based
# Conditions: overnight (18-20 hours) treatment; for Dmax: read-out: Dmax (%)** (% degraded)
# Procedure, shortened: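 SW1573 cells were treated with compound for 18–20 h (final 0.1% DMSO). BRM was quantified either by Western blot of RIPA lysates or by fixed-cell In-Cell Western (LI-COR, 800/680 nm), each normalised to alpha-tubulin, giving Dmax and DC50.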
# T1 sequence (P51531 whole entry): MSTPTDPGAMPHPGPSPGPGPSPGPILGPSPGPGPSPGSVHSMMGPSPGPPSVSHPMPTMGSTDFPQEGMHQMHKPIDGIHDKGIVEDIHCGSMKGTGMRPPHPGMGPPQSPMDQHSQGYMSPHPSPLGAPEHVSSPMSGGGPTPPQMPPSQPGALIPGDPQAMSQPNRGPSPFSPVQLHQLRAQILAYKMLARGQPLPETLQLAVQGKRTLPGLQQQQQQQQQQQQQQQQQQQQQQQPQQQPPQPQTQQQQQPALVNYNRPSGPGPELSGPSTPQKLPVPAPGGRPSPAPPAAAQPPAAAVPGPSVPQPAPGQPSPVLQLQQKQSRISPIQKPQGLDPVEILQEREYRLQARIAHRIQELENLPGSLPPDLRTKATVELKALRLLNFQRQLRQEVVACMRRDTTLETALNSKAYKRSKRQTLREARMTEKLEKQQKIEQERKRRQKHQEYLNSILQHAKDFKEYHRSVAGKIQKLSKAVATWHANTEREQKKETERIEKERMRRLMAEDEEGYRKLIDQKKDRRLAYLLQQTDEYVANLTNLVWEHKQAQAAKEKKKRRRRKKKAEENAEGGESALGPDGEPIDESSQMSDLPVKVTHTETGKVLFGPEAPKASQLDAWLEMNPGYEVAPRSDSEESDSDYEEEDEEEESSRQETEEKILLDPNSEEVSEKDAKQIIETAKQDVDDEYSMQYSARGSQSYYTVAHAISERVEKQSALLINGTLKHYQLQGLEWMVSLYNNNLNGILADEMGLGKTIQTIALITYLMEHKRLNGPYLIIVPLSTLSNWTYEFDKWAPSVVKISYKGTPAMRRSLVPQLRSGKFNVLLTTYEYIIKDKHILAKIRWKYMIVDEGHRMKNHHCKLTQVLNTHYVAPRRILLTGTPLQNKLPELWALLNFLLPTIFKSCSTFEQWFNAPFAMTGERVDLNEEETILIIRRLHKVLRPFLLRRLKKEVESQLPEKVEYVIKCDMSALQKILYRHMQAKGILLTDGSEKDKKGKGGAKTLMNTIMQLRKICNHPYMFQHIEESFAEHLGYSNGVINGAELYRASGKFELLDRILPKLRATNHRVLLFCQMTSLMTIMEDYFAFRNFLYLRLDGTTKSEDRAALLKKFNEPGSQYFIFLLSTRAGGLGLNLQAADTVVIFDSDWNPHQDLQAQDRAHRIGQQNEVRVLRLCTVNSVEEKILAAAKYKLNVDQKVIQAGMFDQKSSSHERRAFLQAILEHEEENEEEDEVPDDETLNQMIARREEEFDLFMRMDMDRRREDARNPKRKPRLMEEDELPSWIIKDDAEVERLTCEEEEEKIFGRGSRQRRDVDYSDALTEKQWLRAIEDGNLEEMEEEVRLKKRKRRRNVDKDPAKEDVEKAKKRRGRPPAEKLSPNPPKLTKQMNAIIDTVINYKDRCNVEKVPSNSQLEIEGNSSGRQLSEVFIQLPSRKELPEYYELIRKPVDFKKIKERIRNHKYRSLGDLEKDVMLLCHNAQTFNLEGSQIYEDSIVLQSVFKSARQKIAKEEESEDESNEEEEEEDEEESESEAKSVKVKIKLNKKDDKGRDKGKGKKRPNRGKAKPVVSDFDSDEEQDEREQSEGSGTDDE
Structure (SMILES),DC50,Dmax
"Cc1ncsc1-c1ccc([C@H](C)NC(=O)[C@@H]2C[C@@H](O)CN2C(=O)[C@@H](c2cc(N3CCC(CN4CCC(O[C@H]5C[C@H](N6CCC(Cc7cnn(-c8cc(-c9ccccc9O)nnc8N)c7)CC6)C5)CC4)CC3)no2)C(C)C)cc1 [Compound 105, (2S,4R)-4-hydroxy-N-[(1S)-1-[4-(4-methyl-1,3-thiazol-5-yl)phenyl]ethyl]-1-[(2R)-3-methyl-2-{3-[4-({4-[(1r,3r)-3-[4-({1-[3-amino-6-(2-hydroxyphenyl)pyridazin-4-yl]-1H-pyrazol-4-yl}methyl)piperidin-1-yl]cyclobutoxy]piperidin-1-yl}methyl)piperidin-1-yl]-1,2-oxazol-5-yl}butanoyl]pyrrolidine-2-carboxamide]",< 2.5 nM,> 75%
"Cc1ncsc1-c1ccc([C@H](C)NC(=O)[C@@H]2C[C@@H](O)CN2C(=O)[C@@H](c2cc(N3CCC(CN4CCC(OC(=O)N5CCN(c6cc(-c7ccccc7O)nnc6N)CC5)CC4)CC3)no2)C(C)C)cc1 [Compound 65, 1-[(1-{5-[(2R)-1-[(2S,4R)-4-hydroxy-2-{[(1S)-1-[4-(4-methyl-1,3-thiazol-5-yl)phenyl]ethyl]carbamoyl}pyrrolidin-1-yl]-3-methyl-1-oxobutan-2-yl]-1,2-oxazol-3-yl}piperidin-4-yl)methyl]piperidin-4-yl 4-[3-amino-6-(2-hydroxyphenyl)pyridazin-4-yl]piperazine-1-carboxylate]",< 2.5 nM,> 75%
"CC(C)[C@H](C(=O)N1C[C@H](O)C[C@H]1C(=O)N[C@@H](C)c1ccc(C#N)cc1)c1cc(N2CCC(C(=O)N3CCC(O[C@H]4C[C@H](Oc5cc(N6C7CCC6CN(c6cc(-c8ccccc8O)nnc6N)C7)ccn5)C4)CC3)CC2)no1 [Compound 137, (2S,4R)-N-[(1S)-1-(4-cyanophenyl)ethyl]-4-hydroxy-1-[(2S)-3-methyl-2-[3-(4-{4-[(1r,3r)-3-[(4-{3-[3-amino-6-(2-hydroxyphenyl)pyridazin-4-yl]-3,8-diazabicyclo[3.2.1]octan-8-yl}pyridin-2-yl)oxy]cyclobutoxy]piperidine-1-carbonyl}piperidin-1-yl)-1,2-oxazol-5-yl]butanoyl]pyrrolidine-2-carboxamide]",≥ 30 nM,–
"Cc1ncsc1-c1ccc([C@H](C)NC(=O)[C@@H]2C[C@@H](O)CN2C(=O)[C@@H](c2cc(N3CCC(O[C@H]4CC[C@H](Oc5cc(N6C7CCC6CN(c6cc(-c8ccccc8O)nnc6N)C7)ccn5)CC4)CC3)no2)C(C)C)cc1 [Compound 136, (2S,4R)-4-hydroxy-N-[(1S)-1-[4-(4-methyl-1,3-thiazol-5-yl)phenyl]ethyl]-1-[(2R)-3-methyl-2-[3-(4-{[(1r,4r)-4-[(4-{3-[3-amino-6-(2-hydroxyphenyl)pyridazin-4-yl]-3,8-diazabicyclo[3.2.1]octan-8-yl}pyridin-2-yl)oxy]cyclohexyl]oxy}piperidin-1-yl)-1,2-oxazol-5-yl]butanoyl]pyrrolidine-2-carboxamide]",< 2.5 nM,> 75%
"Cc1ncsc1-c1ccc([C@H](C)NC(=O)[C@@H]2C[C@@H](O)CN2C(=O)[C@@H](c2cc(N3CCC(CN4CC[C@@H](OC(=O)N5CCN(c6cc(-c7ccccc7O)nnc6N)CC5)[C@H](F)C4)CC3)no2)C(C)C)cc1 [Compound 102, (3R,4R)-3-fluoro-1-[(1-{5-[(2R)-1-[(2S,4R)-4-hydroxy-2-{[(1S)-1-[4-(4-methyl-1,3-thiazol-5-yl)phenyl]ethyl]carbamoyl}pyrrolidin-1-yl]-3-methyl-1-oxobutan-2-yl]-1,2-oxazol-3-yl}piperidin-4-yl)methyl]piperidin-4-yl 4-[3-amino-6-(2-hydroxyphenyl)pyridazin-4-yl]piperazine-1-carboxylate]",2.5 to 10 nM,> 75%
"CC(C)[C@H](C(=O)N1C[C@H](O)C[C@H]1C(=O)N[C@@H](C)c1ccc(-c2ccnn2C)cc1)c1cc(N2CCC(CN3CCC(O[C@H]4C[C@H](OC(=O)N5CCN(c6cc(-c7ccccc7O)nnc6N)CC5)C4)CC3)CC2)no1 [Compound 114, (1r,3r)-3-({1-[(1-{5-[(2S)-1-[(2S,4R)-4-hydroxy-2-{[(1S)-1-[4-(1-methyl-1H-pyrazol-5-yl)phenyl]ethyl]carbamoyl}pyrrolidin-1-yl]-3-methyl-1-oxobutan-2-yl]-1,2-oxazol-3-yl}piperidin-4-yl)methyl]piperidin-4-yl}oxy)cyclobutyl 4-[3-amino-6-(2-hydroxyphenyl)pyridazin-4-yl]piperazine-1-carboxylate]",≥ 30 nM,–
"CC(C)[C@H](C(=O)N1C[C@H](O)C[C@H]1C(=O)N[C@@H](C)c1ccc(-c2ccnn2C)cc1)c1cc(N2CCC(CN3CCC(CN4CCC5(CC4)CC(Oc4cc(N6C7CCC6CN(c6cc(-c8ccccc8O)nnc6N)C7)ccn4)C5)CC3)CC2)no1 [Compound 33, (2S,4R)-1-[(2S)-2-[3-(4-{[4-({2-[(4-{3-[3-amino-6-(2-hydroxyphenyl)pyridazin-4-yl]-3,8-diazabicyclo[3.2.1]octan-8-yl}pyridin-2-yl)oxy]-7-azaspiro[3.5]nonan-7-yl}methyl)piperidin-1-yl]methyl}piperidin-1-yl)-1,2-oxazol-5-yl]-3-methylbutanoyl]-4-hydroxy-N-[(1S)-1-[4-(1-methyl-1H-pyrazol-5-yl)phenyl]ethyl]pyrrolidine-2-carboxamide]",10 to 30 nM,> 75%
"Cc1ncsc1-c1ccc([C@H](C)NC(=O)[C@@H]2C[C@@H](O)CN2C(=O)[C@H](c2cc(N3CCC(C4(N5CCC(O[C@H]6C[C@H](Oc7cc(N8C9CCC8CN(c8cc(-c%10ccccc%10O)nnc8N)C9)ccn7)C6)CC5)CC4)CC3)no2)C(C)C)cc1 [Compound 13, (2S,4R)-4-hydroxy-N-[(3S)-3-[4-(4-methyl-3,3-thiazol-5-yl)phenyl]ethyl]-3-[(2S)-3-methyl-2-{3-[4-(3-{4-[(1r,3r)-3-[(4-{3-[3-amino-6-(2-hydroxyphenyl)pyridazin-4-yl]-3,8-diazabicyclo[3.2.3]octan-8-yl}pyridin-2-yl)oxy]cyclobutoxy]piperidin-1-yl}cyclopropyl)piperidin-1-yl]-1,2-oxazol-5-yl}butanoyl]pyrrolidine-2-carboxamide]",≥ 30 nM,–
"Cc1ncsc1-c1ccc([C@H](C)NC(=O)[C@@H]2C[C@@H](O)CN2C(=O)[C@@H](c2cc(N3CCC(CN4CCC(CN5CCC6(CC5)CC(N5CCC(C(C)n7cc(-c8cc(-c9ccccc9O)nnc8N)cn7)CC5)C6)CC4)CC3)no2)C(C)C)cc1 (stereo partly drawn) [Compound 31, (2S,4R)-1-[(2R)-2-[3-(4-{[4-({2-[4-(1-{4-[3-amino-6-(2-hydroxyphenyl)pyridazin-4-yl]-1H-pyrazol-1-yl}ethyl)piperidin-1-yl]-7-azaspiro[3.5]nonan-7-yl}methyl)piperidin-1-yl]methyl}piperidin-1-yl)-1,2-oxazol-5-yl]-3-methylbutanoyl]-4-hydroxy-N-[(1S)-1-[4-(4-methyl-1,3-thiazol-5-yl)phenyl]ethyl]pyrrolidine-2-carboxamide]",< 2.5 nM,> 75%
"Cc1ncsc1-c1ccc([C@H](C)NC(=O)[C@@H]2C[C@@H](O)CN2C(=O)[C@@H](c2cc(N3CCC(CN4CCC5(CC4)CC(N4CCC(C(=O)N6C7CCC6CN(c6cc(-c8ccccc8O)nnc6N)C7)CC4)C5)CC3)no2)C(C)C)cc1 [Compound 58, (2S,4R)-1-[(2R)-2-[3-(4-{[2-(4-{3-[3-amino-6-(2-hydroxyphenyl)pyridazin-4-yl]-3,8-diazabicyclo[3.2.1]octane-8-carbonyl}piperidin-1-yl)-7-azaspiro[3.5]nonan-7-yl]methyl}piperidin-1-yl)-1,2-oxazol-5-yl]-3-methylbutanoyl]-4-hydroxy-N-[(1S)-1-[4-(4-methyl-1,3-thiazol-5-yl)phenyl]ethyl]pyrrolidine-2-carboxamide]",< 2.5 nM,> 75%
"CC(C)[C@H](C(=O)N1C[C@H](O)C[C@H]1C(=O)N[C@@H](C)c1ccc(-c2scnc2C#CCOCCOCCOCCOCCOc2cc(N3C4CCC3CN(c3cc(-c5ccccc5O)nnc3N)C4)ccn2)cc1)N1Cc2ccccc2C1=O [Compound 82, (2S,4R)-N-[(1S)-1-[4-(4-{1-[(4-{3-[3-amino-6-(2-hydroxyphenyl)pyridazin-4-yl]-3,8-diazabicyclo[3.2.1]octan-8-yl}pyridin-2-yl)oxy]-3,6,9,12-tetraoxapentadec-14-yn-15-yl}-1,3-thiazol-5-yl)phenyl]ethyl]-4-hydroxy-1-[(2R)-3-methyl-2-(1-oxo-2,3-dihydro-1H-isoindol-2-yl)butanoyl]pyrrolidine-2-carboxamide]",≥ 30 nM,–
"Cc1ncsc1-c1ccc([C@H](C)NC(=O)[C@@H]2C[C@@H](O)CN2C(=O)[C@@H](c2cc(N3CCC(CN4CCC(O[C@H]5C[C@H](N6CCC(C#N)(CN7C8CCC7CN(c7cc(-c9ccccc9O)nnc7N)C8)CC6)C5)CC4)CC3)no2)C(C)C)cc1 [Compound 20, (2S,4R)-4-hydroxy-N-[(1S)-1-[4-(4-methyl-1,3-thiazol-5-yl)phenyl]ethyl]-1-[(2R)-3-methyl-2-{3-[4-({4-[(1r,3r)-3-[4-({3-[3-amino-6-(2-hydroxyphenyl)pyridazin-4-yl]-3,8-diazabicyclo[3.2.1]octan-8-yl}methyl)-4-cyanopiperidin-1-yl]cyclobutoxy]piperidin-1-yl}methyl)piperidin-1-yl]-1,2-oxazol-5-yl}butanoyl]pyrrolidine-2-carboxamide]",< 2.5 nM,> 75%
"Cc1ncsc1-c1ccc([C@H](C)NC(=O)[C@@H]2C[C@@H](O)CN2C(=O)[C@@H](c2cc(N3CCC(CN4CC5(CC(N6CCO[C@H](CN7C8CCC7CN(c7cc(-c9ccccc9O)nnc7N)C8)C6)C5)C4)CC3)no2)C(C)C)cc1 [Compound 141, (2S,4R)-1-[(2R)-2-{3-[4-({6-[(2S)-2-({3-[3-amino-6-(2-hydroxyphenyl)pyridazin-4-yl]-3,8-diazabicyclo[3.2.1]octan-8-yl}methyl)morpholin-4-yl]-2-azaspiro[3.3]heptan-2-yl}methyl)piperidin-1-yl]-1,2-oxazol-5-yl}-3-methylbutanoyl]-4-hydroxy-N-[(1S)-1-[4-(4-methyl-1,3-thiazol-5-yl)phenyl]ethyl]pyrrolidine-2-carboxamide]",< 2.5 nM,> 75%
